Test results published in patent publication US5428168A, “Lactol PAF antagonists” (British Biotech Pharmaceuticals Limited, priority 1990, dated 1995).

Experiments:
PAF receptor = target: T1, PAF receptor (Homo sapiens, UniProt P25105); assay: Inhibition of [3H]-PAF receptor binding to human platelet plasma membrane (isotopic labelling and filtration); details: human platelet membranes, 0.5 nM [3H]-PAF, 0° C., 1 hour
T1 construct: Platelet concentrates were obtained from a hospital blood bank; from tissue; host or cells: human platelets (plasma membrane fraction of lysed platelets from hospital blood bank concentrates)
Method: Compounds of general formula I inhibit PAF-induced functions in both the cellular and tissue levels by changing the PAF binding to its specific receptor site. The ability of compounds of general formula I to inhibit the binding of PAF to its specific receptor binding site on human platelet plasma membranes was measured according to the pharmacological example. […] Platelet concentrates were obtained from a hospital blood bank. These platelet concentrates (500-2500 ml.) were centrifuged at 800 rpm for 10 minutes in a SORVALL RC3B centrifuge to remove the red blood cells present. (The word SORVALL is a trade mark.) The supernatant was subsequently centrifuged at 3,000 rpm in a SORVALL RC3B centrifuge to pellet the platelets present. The platelet rich pellets were resuspended in a minimum volume of buffer (150 mM NaCl, 10 mM Tris, 2 mM EDTA, pH 7.5) and layered onto Ficoll-Paque gradients, 9 ml platelet concentrate to 2 ml Ficoll, and centrifuged at 1,900 rpm for 15 minutes in a SORVALL RT6000 centrifuge. This step removes the residual red blood cells and other nonspecific material such as lymphocytes from the preparation. The platelets which form a band between the plasma and the Ficoll were removed, resuspended in the above buffer and centrifuged at 3,000 rpm for 10 minutes in a SORVALL RT6000 centrifuge. The pelleted platelets were resuspended in buffer (10 mM Tris, 5mM MgCl2, 2 mM EDTA, pH 7.0), snap freezed in liquid N2 and allowed to thaw slowly at room temperature in order to lyse the platelets. The latter step was repeated at least 3 times to ensure proper lysis. The lysed platelets were centrifuged at 3,000 rpm for 10 minutes in a SORVALL RT6000 centrifuge and resuspended in buffer. The latter step was repeated twice in order to remove any cytoplasmic proteins which may hydrolyse the […]. The prepared platelet membranes may be stored at -70° C. After thawing the prepared membranes were centrifuged in a SORVALL RT6000 at 3,000 rpm for 10 minutes and resuspended in assay buffer. The assay was conducted by preparing a series of Tris-buffered solutions of the selected antagonist of predetermined concentrations. […] Incubation was initiated by the addition of 100 μg of the isolated membrane fraction to each of the above solutions at 0° C. […] (The word WHATMAN is a trade mark.) The residue in each case was rapidly washed 4 times with 5 ml cold (4° C.) Tris-buffer solution. […] % Inhibition=[(TB-TBA)/SB]x100 where the specific binding SB=TB-NSB […]

[1] = test system: endotoxin induced hypotension in the rat; assay: Reversal of endotoxin induced hypotension in anaesthetised rats; format: in vivo; details: iv, i.v. bolus, E. coli endotoxin 0111:B4, straight line interpolation, read-out: ED50 (dose resulting in 50% reversal of endotoxin induced hypotension)
Method: Rats were anaesthetised with a mixture of sodium pentobarbitone, 22.5 mg·kg^-1, and thiopental, 62.5 mg·kg^-1. The animals breathed spontaneously, air enriched with oxygen, and a carotid artery was cannulated for the measurement of blood pressure and heart rate. […] Test compounds were administered i.v. via the other jugular vein as a bolus.

[2] = test system: PAF-induced bronchoconstriction in the guinea pig; assay: Reversal of PAF-induced bronchoconstriction in anaesthetised guinea-pigs (modified Konzett-Rossler); format: in vivo, guinea-pig (male Dunkin-Hartley); details: Cavia porcellus, iv, PAF 40 ng/kg/min i.v., read-out: ED50 (dose resulting in 50% reversal of PAF-induced bronchoconstriction)
Method: The inhibition of PAF induced bronchoconstriction was measured in anaesthetised artificially ventilated guinea-pigs (450-500 g) using a modified version of the Konzett-Rossler technique (Konzett M and Rossler R, Naunym-Schmiedeb. Arch. Exp. Pathol. Pharmakol., 1940, 197, 71). Male Dunkin-Hartley guinea-pigs were anaesthetised with urethane, 1.6 g·kg^-1. Through a midline neck incision, the trachea was cannulated and the animal ventilated with a constant tidal volume set between 5 and 15 ml, to give a tracheal inflation pressure of 15 mmHg at a rate of 40 per minute. A carotid artery was cannulated for the measurement of blood pressure and heart rate and both jugular veins were cannulated, one for the infusion of PAF and the other for the administration of test compounds. PAF, 40 ng·kg^-1 ·min^-1, was infused i.v. to produced a 100% increase in tracheal inflation pressure, and bronchoconstrictor effects were determined.

[3] = test system: PAF-induced hypotension in the rat; assay: Reversal of PAF-induced hypotension in anaesthetised rats; format: in vivo, rat (male Sprague-Dawley); details: iv, i.v. bolus, PAF 100 ng/kg/min i.v., straight line interpolation, read-out: ED50 (dose to cause 50% reversal of the hypotensive PAF response)
Method: Male Sprague-Dawley rats (300-400 g) were anaesthetised with a mixture of sodium pentobarbitone, 22.5 mg·kg^-1 and thiopental 62.5 mg·kg^-1. Through a midline incision in the neck, the trachea was cannulated and the animals breathed spontaneously. A carotid artery was cannulated for the measurement of blood pressure and this signal was used to trigger a rate meter to measure heart rate. Both jugular veins were cannulated: one for the infusion of PAF and the other for the bolus administration of test compounds.
PAF, 100 ng·kg^-1 .min^-1 was infused i.v. until a sustained fall in mean blood pressure of 50 mmHg was achieved. […] The peak of this reversal was measured and the dose to cause a 50% reversal of the hypotensive PAF response (ED50) calculated by straight line interpolation and the results are presented in Table 2.

T1 sequence (P25105 whole entry): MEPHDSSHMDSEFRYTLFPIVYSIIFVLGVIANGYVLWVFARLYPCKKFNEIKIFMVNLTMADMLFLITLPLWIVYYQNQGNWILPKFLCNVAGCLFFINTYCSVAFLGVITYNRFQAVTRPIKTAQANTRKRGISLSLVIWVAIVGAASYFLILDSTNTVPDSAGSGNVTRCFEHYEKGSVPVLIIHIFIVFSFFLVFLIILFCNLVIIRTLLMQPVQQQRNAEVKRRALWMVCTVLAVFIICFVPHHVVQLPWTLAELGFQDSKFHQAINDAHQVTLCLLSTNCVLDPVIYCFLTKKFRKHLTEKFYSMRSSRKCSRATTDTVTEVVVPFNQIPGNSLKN

Compound: COc1ccc([C@H]2CC[C@H](OCCCn3c(C)nc4cnccc43)O2)cc1OC (relative stereo) [Example 30B, O-(3-(1H-2-Methylimidazo[4,5-c]pyridyl)propyl)-5-(3,4-dimethoxyphenyl)-gamma-butyrolactol ether]
- IC50 (PAF receptor): 7 nM
- ED50 [1]: 7 µg/kg

Compound: COc1ccc([C@H]2CC[C@@H](OCCCc3cccnc3)O2)cc1OC (relative stereo) [Example 1B, cis-O-(3-(3-pyridyl)propyl)-5-(3,4-dimethoxyphenyl)-gamma-butyrolactol ether]
- ED50 [2]: 2.1 µg/kg
- ED50 [1]: 18 µg/kg
- ED50 [3]: 9 µg/kg
